Reference: the supplement of paper PMC10011410
± gives the standard deviation of the averaged measurements.

Experiments:
U-2 OS [1] = experiment: AUC of culture confluence over time (live-cell imaging) (AUC (confluence % x time)); higher = more confluent culture (less growth inhibition)
Method in brief: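 The value is the area under the curve of confluence plotted against time. U-2 OS cells in F-12K medium with 10% FBS were seeded at 750 per well in 384-well plates, then treated by pin tool 24 h later, most compounds at 20, 10 and 5 μM with 0.2% DMSO. At 37 °C, an Incucyte S3 with a 10x objective imaged the wells every 4 h for up to 60 h.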

U-2 OS [2] = experiment: relative cell count vs DMSO (cell painting) (fraction of DMSO control); higher = more cells remaining (less cytotoxic); settings: 24 h
Method in brief: (§1)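 Cell painting used U-2 OS cells at about 1,500 per well in 384-well plates, treated by pin tool for 24 h at 37 °C, usually at six 2-fold concentrations from 20 μM to 625 nM. Cells were stained with MitoTracker, concanavalin A, phalloidin, wheat germ agglutinin, Hoechst and SYTO 14 and imaged on an Opera Phenix. Features were extracted with CellProfiler and normalized to DMSO cells on the same plate. The activity score is the Mahalanobis distance from DMSO wells; cell count is relative to DMSO wells. Values are means of four replicate plates.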

U-2 OS [3] = experiment: cell painting activity score (Mahalanobis distance from DMSO wells); higher = stronger morphological phenotype; settings: 24 h
Method in brief: as §1

U-2 OS [4] = experiment: total intracellular glutathione (GSH + GSSG) relative to DMSO (% of control); higher = more glutathione; settings: 24 h
Procedure: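 Total intracellular glutathione (GSH + GSSG) in U-2 OS cells by GSH/GSSG-Glo after 24 h compound treatment at 5, 10 and 20 uM (some at 40 and 80 uM), as percent of DMSO control. Five technical replicate plates, averaged.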

U-2 OS [5] = experiment: cell viability (CellTiter-Glo) relative to DMSO (% of control); higher = more viable; settings: 24 h
Procedure: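 Cell viability of U-2 OS cells by CellTiter-Glo after 24 h compound treatment at 5, 10 and 20 uM (some at 40 and 80 uM), measured in parallel with the glutathione assay, as percent of DMSO control. Five technical replicate plates, averaged.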

U-2 OS [6] = experiment: intracellular GSH:GSSG ratio (calculated); higher = more reduced glutathione pool; settings: 24 h
Procedure: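 Intracellular glutathione in U-2 OS cells after 24 h compound treatment at 5, 10 and 20 uM (some at 40 and 80 uM). Total glutathione and GSSG were measured with the GSH/GSSG-Glo kit, and the GSH:GSSG ratio was calculated. Mean of five technical replicate plates.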

Row | SMILES | AUC of culture confluence over time (U-2 OS [1]; 5 µM) | AUC of culture confluence over time (U-2 OS [1]; 10 µM) | AUC of culture confluence over time (U-2 OS [1]; 20 µM) | relative cell count (U-2 OS [2]; 0.625 µM) | relative cell count (U-2 OS [2]; 1.25 µM) | relative cell count (U-2 OS [2]; 2.5 µM) | relative cell count (U-2 OS [2]; 5 µM) | relative cell count (U-2 OS [2]; 10 µM) | relative cell count (U-2 OS [2]; 20 µM) | cell painting activity score (U-2 OS [3]; 0.625 µM) | cell painting activity score (U-2 OS [3]; 1.25 µM) | cell painting activity score (U-2 OS [3]; 2.5 µM) | cell painting activity score (U-2 OS [3]; 5 µM) | cell painting activity score (U-2 OS [3]; 10 µM) | cell painting activity score (U-2 OS [3]; 20 µM) | total intracellular glutathione (U-2 OS [4]; 5 µM) | total intracellular glutathione (U-2 OS [4]; 10 µM) | total intracellular glutathione (U-2 OS [4]; 20 µM) | cell viability (U-2 OS [5]; 5 µM) | cell viability (U-2 OS [5]; 10 µM) | cell viability (U-2 OS [5]; 20 µM) | intracellular GSH:GSSG ratio (U-2 OS [6]; 5 µM) | intracellular GSH:GSSG ratio (U-2 OS [6]; 10 µM) | intracellular GSH:GSSG ratio (U-2 OS [6]; 20 µM) | relative cell count (U-2 OS [2]; 40 µM) | relative cell count (U-2 OS [2]; 80 µM) | cell painting activity score (U-2 OS [3]; 40 µM) | cell painting activity score (U-2 OS [3]; 80 µM) | total intracellular glutathione (U-2 OS [4]; 40 µM) | total intracellular glutathione (U-2 OS [4]; 80 µM) | cell viability (U-2 OS [5]; 40 µM) | cell viability (U-2 OS [5]; 80 µM)
1 | O=[N+]([O-])c1c(Cl)cc(Cl)c2nsnc12 | 19.8 | 10.2 | 8 | 0.967 | 0.626 | 0.447 | 0.222 | 0.02 | 0.0161 | 5.1 | 10.7 | 14.1 | 17.8 | 25.1 | 24.4 | 116 ± 6.5 | 81.7 ± 6 | 48.7 ± 3.5 | 88.3 ± 13 | 52.4 ± 10 | 19.5 ± 8.6 | 13.9 | 6.83 | 2.56 | – | – | – | – | – | – | – | –
2 | NC1CS(=O)(=O)c2ccccc21 (configuration not stated) | – | – | – | 0.986 | 1.06 | 1.06 | 1.07 | 1.06 | 1.04 | 4.42 | 4.19 | 4.72 | 3.88 | 3.43 | 4.56 | 51.9 ± 5.3 | 51.6 ± 4.8 | 45.5 ± 3.2 | 56.6 ± 6.3 | 58 ± 7.3 | 56.7 ± 7.8 | 3.24 | – | – | – | – | – | – | – | – | – | –
3 | O=S1(=O)CC(SCc2ccccc2)c2ccccc21 (configuration not stated) | – | – | – | 1.13 | 1.12 | 1.06 | 1.07 | 1.14 | 1.12 | 4.11 | 4.32 | 4.24 | 4.29 | 3.77 | 3.73 | 105 ± 2.7 | 98.7 ± 6.5 | 106 ± 6.4 | 107 ± 2.6 | 104 ± 5.2 | 97.8 ± 5.9 | 30.3 | 20.1 | 26.3 | – | – | – | – | – | – | – | –
4 | CCCC1(c2ccccc2)NC(=O)N(CC(=O)N(C)Cc2c(F)cccc2Cl)C1=O (configuration not stated) | 53.9 | 48.4 | 48.7 | 1.02 | 0.978 | 1.04 | 1.03 | 0.991 | 1.04 | 4.41 | 4.87 | 5.72 | 6.63 | 7.72 | 8.18 | 102 ± 4.9 | 104 ± 2.5 | 101 ± 3.9 | 101 ± 3.2 | 102 ± 2.8 | 100 ± 2.9 | 20.7 | 26.8 | 22.5 | – | – | – | – | – | – | – | –
5 | Nc1nc(-c2ccccc2)ns1 | 44.7 | 46.7 | 45.6 | 1 | 0.944 | 0.943 | 0.973 | 1 | 1.01 | 3.85 | 4.11 | 4.04 | 3.13 | 2.93 | 3.84 | 107 ± 7.8 | 89.3 ± 4 | 117 ± 7.1 | 104 ± 5.4 | 104 ± 3 | 101 ± 6.3 | 29.7 | 23.5 | 27.1 | – | – | – | – | – | – | – | –
6 | Oc1cccc(-c2nc(N3CCOCC3)c3oc4ncccc4c3n2)c1 | – | – | – | 0.904 | 0.875 | 0.774 | 0.734 | 0.738 | 0.682 | 9.68 | 11.3 | 11.4 | 11.6 | 10 | 11.3 | 58.8 ± 2.2 | 60.1 ± 3.8 | 58.6 ± 2.4 | 58.4 ± 1.5 | 56.8 ± 2.5 | 55.17 ± 0.53 | 22.3 | 19.6 | 20.9 | – | – | – | – | – | – | – | –
7 | CC1(C)CC[C@]2(C(=O)n3ccnc3)CC[C@]3(C)[C@H](C(=O)C=C4[C@@]5(C)C=C(C#N)C(=O)C(C)(C)[C@@H]5CC[C@]43C)[C@@H]2C1 | 16 | 14.8 | 13.9 | 0.329 | 0.22 | 0.121 | 0.0924 | 0.0552 | 0.0644 | 17.6 | 23.5 | 35.7 | 33.9 | 32 | 26.6 | 36.9 ± 4.2 | 38 ± 6.2 | 38.6 ± 5.8 | 43.9 ± 1.6 | 43.8 ± 5.2 | 94.4 ± 8.6 | 3.45 | 4.45 | 0.635 | – | – | – | – | – | – | – | –
8 | O=C(NNS(=O)(=O)c1ccccc1)c1cc(-c2ccnnc2)ccc1F | 49.6 | 50 | 49.6 | 0.985 | 0.95 | 0.967 | 1.02 | 0.939 | 1.04 | 4.47 | 4.16 | 3.77 | 3.67 | 4.24 | 4.38 | 98 ± 3.1 | 94.3 ± 3 | 94.6 ± 4.8 | 95.6 ± 5.4 | 87.5 ± 7.7 | 88.5 ± 3.6 | 23.9 | 21.4 | 23.2 | – | – | – | – | – | – | – | –
9 | C=CC(=O)Nc1cccc(Oc2nc(Nc3ccc(N4CCN(C)CC4)cc3OC)ncc2Cl)c1 | 42.4 | 21.9 | 5.33 | 1.09 | 1 | 0.976 | 0.957 | 0.914 | 0.342 | 5.47 | 8.25 | 10.7 | 9.73 | 12.1 | 14.9 | 110 ± 7.6 | 102 ± 5.2 | 108 ± 2 | 87.2 ± 3.6 | 76 ± 1.4 | 39.8 ± 1.5 | 24.9 | – | – | – | – | – | – | – | – | – | –
10 | COC1=CC=C(S(=O)(O/N=C2C=C(C(C(C)=C\2)=O)C)=O)C=C1 | – | – | – | 1.01 | 0.93 | 0.9 | 0.718 | 0.17 | 0.237 | 4.25 | 8.9 | 10.5 | 12 | 16.6 | 24.6 | 59.9 ± 4 | 41.1 ± 5.9 | 6.59 ± 2.2 | 31.2 ± 1.5 | 15.9 ± 2 | 9.58 ± 10 | 4.85 | 2.61 | – | 0.146 | 0.0922 | 22.8 | 20.4 | 0.79 ± 0.15 | 0.604 ± 0.13 | 0.28 ± 0.061 | 0.124 ± 0.018
11 | COC(=O)c1ccc([C@H]2c3[nH]c4ccccc4c3C[C@H](C(=O)OC)N2C(=O)CCl)cc1 | – | – | – | 0.876 | 0.867 | 0.818 | 0.68 | 0.524 | 0.186 | 10.3 | 10.7 | 11.1 | 10.8 | 10 | 17.9 | 93.1 ± 5.2 | 75.3 ± 6.4 | 10.7 ± 1.2 | 69.6 ± 4.1 | 49.1 ± 4.9 | 6.2 ± 1.6 | 3.83 | 3.98 | 1.09 | – | – | – | – | – | – | – | –
12 | O=[N+]([O-])c1c(Sc2ncnc3nc[nH]c23)cc(Cl)c2nsnc12 | – | – | – | 0.924 | 0.936 | 0.903 | 0.912 | 0.96 | 0.913 | 3.42 | 4.43 | 4.96 | 4.68 | 3.76 | 3.8 | 74 ± 19 | 32.4 ± 4.7 | 43.3 ± 3.9 | 41.6 ± 9.6 | 5.86 ± 1.9 | 12 ± 2.9 | 9.07 | 1.18 | 2.18 | – | – | – | – | – | – | – | –
13 | O=C(CSC1CC(=O)N(c2cccc(Cl)c2)C1=O)Nc1ccc(Br)cc1 (configuration not stated) | – | – | – | 1.13 | 1.13 | 1.06 | 1.06 | 1.1 | 1.12 | 3.18 | 3.28 | 3.09 | 4.23 | 3.79 | 3.43 | 94.6 ± 4.8 | 93.9 ± 4 | 95.2 ± 5.6 | 105 ± 8.8 | 99.5 ± 4.2 | 107 ± 5.8 | 28 | 31.9 | 26.5 | – | – | – | – | – | – | – | –
14 | C=CC(=O)N1CCN(c2ncnc3c(F)c(-c4c(O)cccc4F)c(Cl)cc23)CC1 | – | – | – | 0.691 | 0.719 | 0.571 | 0.555 | 0.531 | 0.516 | 10.3 | 8.82 | 11.4 | 11 | 11.8 | 16 | 105 ± 3.9 | 104 ± 3.3 | 102 ± 3.2 | 91.3 ± 4.4 | 89.2 ± 6.2 | 100 ± 6.9 | 18.9 | 16.4 | 11.6 | – | – | – | – | – | – | – | –
15 | O=S1(=O)CC(Sc2cccs2)c2ccccc21 (configuration not stated) | – | – | – | 1.02 | 0.974 | 0.948 | 1 | 0.984 | 0.61 | 3.43 | 3.86 | 4.15 | 3.78 | 3.12 | 10.7 | 115 ± 4.9 | 107 ± 9.4 | 120 ± 8.6 | 103 ± 5.5 | 100 ± 5.5 | 104 ± 4.5 | 25.2 | 24.8 | 30 | – | – | – | – | – | – | – | –
16 | O=[N+]([O-])c1ccc(-c2nnc(SC3=CS(=O)(=O)c4ccccc43)o2)cc1 | – | – | – | 0.934 | 0.893 | 0.773 | 0.394 | 0.225 | 0.29 | 6.12 | 8.55 | 13.1 | 17.1 | 14.6 | 17.5 | 119 ± 3.7 | 38.4 ± 3.2 | 46.6 ± 3.2 | 84.5 ± 5.8 | 33.5 ± 5.2 | 49.4 ± 2.6 | 10.4 | 3.4 | 3.08 | – | – | – | – | – | – | – | –
